Patent publication US7202280B2, “Methods for the treatment and prevention of pancreatitis and for induction of liver regeneration” (priority 2002, dated 2007)

Tests used:
Assay type in all cases: in vivo, rat
[1] = tested on: SSAT; test: SSAT activity in SSAT transgenic rats after polyamine analogues without or with MDL72527
Procedure: FIGS. 9A–9B. Effect of polyamine analogues without or with MDL72527 on hepatic SSAT (FIG. 9A) and PAO (FIG. 9B) activities in SSAT transgenic rats. The rats were treated with the drugs as described in the legend for FIGS. 8A–8D. There were three to four animals in each group.
The production of transgenic Wistar rats (UKUR30) and mice (UKU181) harboring metallothionein-SSAT fusion gene (Suppola, S., Pietilä, M., Parkkinen, J. J., Korhonen, V. P., Alhonen, L., Halmekytö, M., Porter, C. W., and Jänne, J. (1999) Biochem. J. 338, 311–316) has been described earlier (Alhonen, L., Parkkinen, J. J., Keinänen, T., Sinervirta, R., Herzig, K. H., and Jänne, J. (2000) Proc. Natl. Acad. Sci. U.S.A. 97, 8290–8295; Lukkarinen, J., Gröhn, O., Sinervirta, R., Järvinen, A., Kauppinen, R. A., Jänne, J., and Alhonen, L. (1997) Stroke 28, 639–645). Partial hepatectomy was carried out according to the original method of Higgins and Anderson (Higgins, G. H., and Anderson, R. M. (1931) Arch. Pathol. 12, 186–202). […]
PAO activity was measured to verify the effectiveness of MDL72527 treatment and to determine whether the analogues have any effect on its activity. […]

[2] = tested on: syngenic and transgenic rats; test: Pancreatic SSAT activity and polyamine pools after zinc and methylspermidine
Procedure: FIGS. 1a-1d. Pancreatic polyamine pools in syngenic and transgenic rats after zinc and methylspermidine. […] Three to five animals in each group. Me-spd, methylspermidine. The production of transgenic Wistar rats (UKUR30) and mice (UKU181) harboring metallothionein-SSAT fusion gene (Suppola, […]., Porter, C. W., and Jänne, J. (1999) Biochem. […] (2000) Proc. Natl. Acad. Sci. U.S.A. 97, 8290-8295; Lukkarinen, […]., and Alhonen, L. (1997) Stroke 28, 639-645). Partial hepatectomy was carried out according to the original method of Higgins and Anderson (Higgins, G. H., and Anderson, R. M. (1931) Arch. Pathol. 12, 186-202). Treatments before partial hepatectomy and the determination of DNA synthesis were carried out as in ([…]., Suppola, […]., and […]. Biol. Chem. 277, 39867-39872). Transgenic 10 weeks old male rats were injected twice with MDL72527 (50 mg/kg i.p.) at 16-h interval to inactivate PAO according to (Bolkenius, F. N., Bey, P., and Seiler, N. (1985) Biochim. Biophys. […] An aliquot of the homogenates was used for the polyamine assays. The homogenates were centrifuged (at 13 000×g, for 30 min, at 4° C.) and the supernatants were used for the enzyme activity assays. The Institutional Animal Care and Use Committee of the University of Kuopio and by the Provincial Government approved animal experiments. […] Merck (Darmstadt, Germany). […] The changes in pancreatic polyamine pools in response to zinc and methylspermidine are depicted in FIG. 1. […] The various treatments only marginally altered pancreatic putrescine pools (FIG. 1a). […] FIG. 1d depicts the accumulation of the analogue in the pancreas after a single dose or two doses.

[3] = tested on: rats with arginine-induced pancreatitis; test: Arginine-induced pancreatitis
Procedure: FIG. 6 Plasma α-amylase activity in rats with arginine-induced pancreatitis after methylspermidine. The animals received […]-500 mg/kg) 24 h before sacrifice with or without methylspermidine (50 mg/kg) either as a single dose 4 h before arginine or as two doses 20 h and 4 h before arginine. Three to five animals in each group. Arg, Arginine. Me-Spd, methylspermidine. Administration of large quantities of arginine is known to cause acute, necrotizing pancreatitis in rats.

CC(N)CCNCCCCNCCC(C)N (stereo not drawn) [bis-α-methylspermine, 1,12-dimethylspermine]
hepatic SSAT activity ([1]; analogue 25 mg/kg i.p. twice): significantly increased hepatic SSAT activity
hepatic SSAT activity ([1]; analogue combined with MDL72527): further enhanced

CC(N)CCNCCCCN (stereo not drawn) [α-methylspermidine, 1-methylspermidine]
accumulation of the analogue in the pancreas ([2]; single dose or two doses of 50 mg/kg): effectively accumulated in the pancreas apparently with no further metabolism
SSAT activity, Pancreas ([2]; syngenic rats, zinc 10 mg/kg with methylspermidine 50 mg/kg): did not influence SSAT activity
SSAT activity, Pancreas ([2]; transgenic rats, analogue with zinc vs zinc alone): only slightly increased SSAT activity
Pancreatic spermidine pool ([2]; transgenic rats, zinc 10 mg/kg): little effect on zinc-induced depletion of spermidine
plasma amylase ([3]; arginine 250–500 mg/kg, single dose 50 mg/kg): significantly reduced the pancreatitis-associated increase in plasma amylase
plasma amylase levels ([3]; arginine 250–500 mg/kg, two repeated doses): fully normalized
histopathological changes in the pancreas ([3]; arginine-induced pancreatitis): prevented the histopathological changes
